pIC50: −log10 of the molar value. Read-outs that look alike come from different tables or passages of the source.
Tests used:
CD1 mice [1] = assay: Muscle relaxant activity, rotarod test; type: in vivo; details: Mus musculus, ip
CD1 mice [2] = assay: Anticonvulsant activity, bicuculline induced seizures; type: in vivo; details: Mus musculus; po.; read-out: Bicuculline ED50
Experimental: (§1) The anti-seizure activity of some of the compounds of the present invention was measured using the electroshock test (J. Pharmacol. Exp. Ther. 106:319 (1952)) and the results are shown in Table 3. The spasmolytic activity of the compounds of the present invention was investigated by using e.g., pentetrazole (J. Pharmacol. Exp. Ther. 108:168 (1953)), strychnine (J. Pharmacol. Exp. Ther. 129:75 (1960)), bemegrid, nicotine, bicuculline, 4-aminopyridine and mercapto-propionic acid for inducing the clonic-tonic seizures and lethality. The investigated compounds were administered orally in three doses using 10 male CD1 mice/dose, usually 60 min before the induction of seizures.

CD1 mice [3] = assay: Anticonvulsant activity, maximal electroshock seizure (MES) test; type: in vivo; details: Mus musculus, po.
Experimental: as §1

CD1 mice [4] = assay: Anticonvulsant activity, pentetrazole induced seizures; type: in vivo; details: Mus musculus; po.; read-out: Pentetrazol ED50
Experimental: as §1

AMPA/kainate receptors = assay: Inhibition of AMPA induced whole-cell current in acutely isolated cerebellar Purkinje cells (patch clamp); type: cell-based; details: 5 μM AMPA, read-out: Inhibition of the ion-currents caused by 5 μM AMPA, IC50
Experimental: (§2) In the first model the spreading depression caused by glutamate agonists (i.e., AMPA or kainate) was studied, while in the second one the transmembrane ion-current induced by the activation of the AMPA/kainate receptors was measured directly.
The activity of the compounds of the present invention was studied on acutely isolated cerebellar Purkinje cells by measuring the whole-cell current induced by 5 μM AMPA according for example to the method described by Bleakman et al (Neuropharmacology 12:1689 (1996)).

AMPA receptors = assay: Inhibition of AMPA induced spreading depression in isolated chicken retina; type: cell-based; details: AMPA (5 μM)
Experimental: as §2
Inhibition of AMPA Induced “Spreading Depression” in Isolated Chicken Retina—
The AMPA antagonistic effect of the compounds of formula (I) or (II) was studied in the in vitro “spreading depression” model (Sheardown Brain Res. 607:189 (1993)). The AMPA antagonists prolong the latency of the development of the “spreading depression” caused by AMPA (5 μM).

CD1 mice [5] = assay: Anticonvulsant activity, 3-mercapto-propionic acid induced seizures; type: in vivo; details: Mus musculus; po.; read-out: 3-MPA ED50
Experimental: as §1

CD1 mice [6] = assay: Anti-tremor effect, GYKI 20039 induced tremor; type: in vivo; details: Mus musculus; po., Litchfield-Wilcoxon, limits in brackets; read-out: ED50, tremor induced by GYKI 20039 10 mg/kg ip.
CD1 mice [7] = assay: Anticonvulsant activity, 4-aminopyridine induced seizures; type: in vivo; details: Mus musculus; po.; read-out: 4-AP ED50
Experimental: as §1

CD1 mice [8] = assay: Anticonvulsant activity, bemegride induced seizures; type: in vivo; details: Mus musculus; po.; read-out: Bemegride ED50
Experimental: as §1

CD1 mice [9] = assay: Anticonvulsant activity, nicotine induced seizures; type: in vivo; details: Mus musculus; po.
Experimental: as §1

CD1 mice [10] = assay: Muscle relaxant activity, inclined screen test; type: in vivo; details: Mus musculus, ip
CD1 mice [11] = assay: Anti-tremor effect, oxotremorine induced tremor; type: in vivo; details: Mus musculus; po., Litchfield-Wilcoxon, limits in brackets; read-out: ED50, tremor induced by Oxotremorin 1 mg/kg ip.
CD1 mice [12] = assay: Anticonvulsant activity, strychnine induced seizures; type: in vivo; details: Mus musculus; po.; read-out: Strychnine ED50
Experimental: as §1

Lewis rats [13] = assay: Autoimmune encephalomyelitis model, neurological (clinical) symptoms; type: in vivo; details: Rattus norvegicus, po, 7.5 mg/kg p.o., female rats, read-out: Neurological symptoms (change compared to controls, %)
Experimental: The compounds were administered intraperitoneally twice a day for 8 days, starting on day 10 after immunization and with an observation period until symptoms were present. 5-15 animals were used in each group. Their weights were 160-180 g (Lewis rats, female) and 180-220 g (Lewis rats, male). The activity of the compounds was determined according to the symptom score values, and compared to those of the control group (see Table 6). Histopathological investigations were carried out on the brain stem, the spinal cord, and the sciatic nerve (Gijbels et al., J. Clin. Invest. 94:2177 (1994)) using 5-10 animal/group.
Compounds of the invention were further investigated in the autoimmune encephalomyelitis model in rats as outlined in this description before, with the variance that 10 animals were used in each group, of weights 140-160 g (Lewis rats, female).

Lewis rats [14] = assay: as above; type: in vivo; details: Rattus norvegicus, po, 3.75 mg/kg p.o., female rats, read-out: Neurological symptoms (change compared to controls, %)
[15] = 0.5 h, 30′, read-out: MES 30′ ED50
[16] = 1 h, 60 min before induction, read-out: MES (MES 60′) ED50

| Compound | ED50 (CD1 mice [1]) | ED50 (CD1 mice [2]) | ED50 (CD1 mice [3]; [15]) | ED50 (CD1 mice [3]; [16]) | ED50 (CD1 mice [4]) | pIC50 (AMPA/kainate receptors) | pIC50 (AMPA receptors) | ED50 (CD1 mice [5]) | ED50 (CD1 mice [6]) | ED50 (CD1 mice [7]) | melting point | ED50 (CD1 mice [8]) | ED50 (CD1 mice [9]) | ED50 (CD1 mice [10]) | ED50 (CD1 mice [11]) | ED50 (CD1 mice [12]) | change in vivo at 7.5 mg/kg (Lewis rats [13]; 0-8 day) | change in vivo at 7.5 mg/kg (Lewis rats [13]; 0-14 day) | change in vivo at 3.75 mg/kg (Lewis rats [14]; 0-8 day) | change in vivo at 3.75 mg/kg (Lewis rats [14]; 0-14 day) |
| --- | --- | --- | --- | --- | --- | --- | --- | --- | --- | --- | --- | --- | --- | --- | --- | --- | --- | --- | --- | --- |
| CCc1nnc(N2N=C(c3ccc(N)c(C)c3)c3cc4c(cc3C[C@H]2C)OCO4)s1 [Example 165, (R)-5-(4-Amino-3-methylphenyl)-7-(5-ethyl-1,3,4-thiadiazol-2-yl)-8-methyl-8,9-dihydro-7H-1,3-dioxolo-[4,5-h][2,3]benzodiazepine] | 0.91 mg/kg | 5.79 mg/kg | 2.39 mg/kg | 3.99 mg/kg | 10.1 mg/kg | 7.62 | 6.95 | 8.53 mg/kg | 5.34 mg/kg | 8.6 mg/kg | 129 to 133 °C | 10 mg/kg | 18.6 mg/kg | 2.94 mg/kg | 4.63 mg/kg | 10.2 mg/kg |  |  |  |  |
| CCCc1nnc(N2N=C(c3ccc(N)c(C)c3)c3cc4c(cc3C[C@H]2C)OCO4)s1 [Example 166, (R)-5-(4-Amino-3-methylphenyl)-8-methyl-7-(5-propyl-1,3,4-thiadiazol-2-yl)-8,9-dihydro-7H-1,3-dioxolo[4,5-h][2,3]benzodiazepine] | 0.86 mg/kg | 13.3 mg/kg | 4.54 mg/kg | 4.01 mg/kg | 9.18 mg/kg | 7.55 | 6.70 | 9.92 mg/kg | 4.54 mg/kg | 6.81 mg/kg | 150 to 154 °C | 7.77 mg/kg | 21.8 mg/kg | 3.27 mg/kg | 2.74 mg/kg | 7.29 mg/kg | -51% | -53% | -6% | -9% |
| COCc1nnc(N2N=C(c3ccc(N)c(C)c3)c3cc4c(cc3C[C@H]2C)OCO4)s1 [Example 168, (R)-5-(4-Amino-3-methylphenyl)-8-methyl-7-(5-methoxymethyl-1,3,4-thiadiazol-2-yl)-8,9-dihydro-7H-1,3-dioxolo-[4,5-h][2,3]benzodiazepine] | 0.8 mg/kg | 10.6 mg/kg | 2.21 mg/kg | 4.49 mg/kg | 6.9 mg/kg | 7.96 | 7.09 | 4.62 mg/kg | 4.11 mg/kg | 4.6 mg/kg | 171 to 172 °C | 6.7 mg/kg | 17.7 mg/kg | 3.58 mg/kg | 3.29 mg/kg | 10 mg/kg | -55% | -56% | -16% | -23% |
| Cc1nnc(N2N=C(c3ccc(N)c(Cl)c3)c3cc4c(cc3C[C@H]2C)OCO4)s1 [Example 182, (R)-5-(4-Amino-3-chlorophenyl)-8-methyl-7-(5-methyl-1,3,4-thiadiazol-2-yl)-8,9-dihydro-7H-1,3-dioxolo-[4,5-h][2,3]benzodiazepine] | 2.61 mg/kg | 8.44 mg/kg | 5.08 mg/kg | 6.17 mg/kg | 8.37 mg/kg | 7.51 | 7.70 | 7.57 mg/kg | 3.64 mg/kg | 5.44 mg/kg | 98 to 100 °C | 7.94 mg/kg | 24.2 mg/kg | 5.84 mg/kg | 2.66 mg/kg | 5.9 mg/kg |  |  |  |  |
